Calls of active or inactive are those of the source.
Legend:
[1] = biological target: T1, Phenylalanine--tRNA ligase beta subunit (Homo sapiens, UniProt Q9NSD9)
T1 sequence (Q9NSD9 whole entry): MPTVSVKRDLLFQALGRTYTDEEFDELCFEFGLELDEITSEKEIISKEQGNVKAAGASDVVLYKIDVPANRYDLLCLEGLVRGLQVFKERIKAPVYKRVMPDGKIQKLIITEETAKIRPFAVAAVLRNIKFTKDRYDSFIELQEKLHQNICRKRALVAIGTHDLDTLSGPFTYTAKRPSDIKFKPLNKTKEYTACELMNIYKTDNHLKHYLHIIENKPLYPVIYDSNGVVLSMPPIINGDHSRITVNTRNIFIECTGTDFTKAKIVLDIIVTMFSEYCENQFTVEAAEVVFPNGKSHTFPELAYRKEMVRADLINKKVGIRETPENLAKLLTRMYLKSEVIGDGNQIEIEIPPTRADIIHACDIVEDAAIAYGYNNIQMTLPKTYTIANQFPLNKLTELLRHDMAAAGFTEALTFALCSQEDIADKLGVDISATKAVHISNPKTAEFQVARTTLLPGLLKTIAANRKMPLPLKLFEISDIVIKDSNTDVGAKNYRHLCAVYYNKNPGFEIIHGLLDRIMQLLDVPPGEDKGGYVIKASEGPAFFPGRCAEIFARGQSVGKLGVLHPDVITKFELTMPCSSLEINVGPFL

[2] = biological target: Serine/threonine-protein kinase SIK3 (Homo sapiens, UniProt Q9Y2K2)
Serine/threonine-protein kinase SIK3, sequence (Q9Y2K2 whole entry): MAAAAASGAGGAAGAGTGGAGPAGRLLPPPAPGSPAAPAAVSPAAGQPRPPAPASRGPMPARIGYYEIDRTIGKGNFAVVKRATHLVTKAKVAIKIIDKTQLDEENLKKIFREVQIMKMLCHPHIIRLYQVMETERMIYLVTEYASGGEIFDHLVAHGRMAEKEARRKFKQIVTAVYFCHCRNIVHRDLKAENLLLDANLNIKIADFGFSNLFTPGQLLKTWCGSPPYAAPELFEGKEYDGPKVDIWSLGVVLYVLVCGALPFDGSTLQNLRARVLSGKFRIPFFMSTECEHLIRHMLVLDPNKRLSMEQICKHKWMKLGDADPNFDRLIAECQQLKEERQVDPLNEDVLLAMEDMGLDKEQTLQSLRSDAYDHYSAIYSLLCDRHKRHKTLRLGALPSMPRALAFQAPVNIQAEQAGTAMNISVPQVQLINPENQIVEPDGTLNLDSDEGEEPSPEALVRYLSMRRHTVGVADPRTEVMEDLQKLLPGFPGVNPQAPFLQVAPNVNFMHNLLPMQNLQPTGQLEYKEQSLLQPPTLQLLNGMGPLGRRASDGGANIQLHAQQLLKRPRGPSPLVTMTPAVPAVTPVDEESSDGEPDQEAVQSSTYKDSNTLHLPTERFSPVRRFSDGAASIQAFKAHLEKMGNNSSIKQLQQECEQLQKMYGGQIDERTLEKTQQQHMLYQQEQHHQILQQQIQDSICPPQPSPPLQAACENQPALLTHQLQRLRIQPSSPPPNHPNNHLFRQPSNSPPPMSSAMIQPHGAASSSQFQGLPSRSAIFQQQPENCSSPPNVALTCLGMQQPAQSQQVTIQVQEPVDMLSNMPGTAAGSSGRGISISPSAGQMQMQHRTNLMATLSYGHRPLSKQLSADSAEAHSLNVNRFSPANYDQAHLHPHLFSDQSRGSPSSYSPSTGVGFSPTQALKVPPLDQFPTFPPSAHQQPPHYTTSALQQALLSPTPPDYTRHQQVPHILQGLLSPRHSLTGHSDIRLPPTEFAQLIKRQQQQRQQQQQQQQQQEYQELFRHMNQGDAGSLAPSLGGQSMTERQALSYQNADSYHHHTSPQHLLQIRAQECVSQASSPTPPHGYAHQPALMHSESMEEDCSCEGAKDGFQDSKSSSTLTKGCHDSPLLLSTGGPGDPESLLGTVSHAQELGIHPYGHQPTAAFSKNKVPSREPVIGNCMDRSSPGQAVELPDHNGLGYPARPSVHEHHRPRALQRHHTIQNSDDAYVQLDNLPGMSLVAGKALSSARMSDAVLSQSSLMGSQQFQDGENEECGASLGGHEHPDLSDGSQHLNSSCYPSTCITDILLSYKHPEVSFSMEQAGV

[3] = biological target: T2, Signal recognition particle receptor subunit alpha (Homo sapiens, UniProt P08240)
T2 sequence (P08240 whole entry): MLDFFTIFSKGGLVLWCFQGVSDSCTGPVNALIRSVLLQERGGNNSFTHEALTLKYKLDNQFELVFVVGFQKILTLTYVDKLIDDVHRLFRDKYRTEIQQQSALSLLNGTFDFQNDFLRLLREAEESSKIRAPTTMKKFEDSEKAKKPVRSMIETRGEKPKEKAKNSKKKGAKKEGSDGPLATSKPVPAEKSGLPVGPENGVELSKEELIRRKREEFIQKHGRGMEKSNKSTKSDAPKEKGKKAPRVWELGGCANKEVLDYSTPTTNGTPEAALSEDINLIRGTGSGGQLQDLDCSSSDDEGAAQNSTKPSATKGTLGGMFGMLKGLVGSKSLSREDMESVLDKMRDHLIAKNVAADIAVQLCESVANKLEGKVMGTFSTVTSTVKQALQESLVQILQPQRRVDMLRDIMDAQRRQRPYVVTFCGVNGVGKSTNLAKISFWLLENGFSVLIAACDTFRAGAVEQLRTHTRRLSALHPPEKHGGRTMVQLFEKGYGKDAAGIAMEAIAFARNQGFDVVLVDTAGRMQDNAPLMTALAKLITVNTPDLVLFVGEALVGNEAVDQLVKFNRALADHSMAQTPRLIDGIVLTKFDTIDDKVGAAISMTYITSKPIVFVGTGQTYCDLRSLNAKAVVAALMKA

[4] = biological target: T3, Breakpoint cluster region protein (Homo sapiens, UniProt P11274)
T3 sequence (P11274 whole entry): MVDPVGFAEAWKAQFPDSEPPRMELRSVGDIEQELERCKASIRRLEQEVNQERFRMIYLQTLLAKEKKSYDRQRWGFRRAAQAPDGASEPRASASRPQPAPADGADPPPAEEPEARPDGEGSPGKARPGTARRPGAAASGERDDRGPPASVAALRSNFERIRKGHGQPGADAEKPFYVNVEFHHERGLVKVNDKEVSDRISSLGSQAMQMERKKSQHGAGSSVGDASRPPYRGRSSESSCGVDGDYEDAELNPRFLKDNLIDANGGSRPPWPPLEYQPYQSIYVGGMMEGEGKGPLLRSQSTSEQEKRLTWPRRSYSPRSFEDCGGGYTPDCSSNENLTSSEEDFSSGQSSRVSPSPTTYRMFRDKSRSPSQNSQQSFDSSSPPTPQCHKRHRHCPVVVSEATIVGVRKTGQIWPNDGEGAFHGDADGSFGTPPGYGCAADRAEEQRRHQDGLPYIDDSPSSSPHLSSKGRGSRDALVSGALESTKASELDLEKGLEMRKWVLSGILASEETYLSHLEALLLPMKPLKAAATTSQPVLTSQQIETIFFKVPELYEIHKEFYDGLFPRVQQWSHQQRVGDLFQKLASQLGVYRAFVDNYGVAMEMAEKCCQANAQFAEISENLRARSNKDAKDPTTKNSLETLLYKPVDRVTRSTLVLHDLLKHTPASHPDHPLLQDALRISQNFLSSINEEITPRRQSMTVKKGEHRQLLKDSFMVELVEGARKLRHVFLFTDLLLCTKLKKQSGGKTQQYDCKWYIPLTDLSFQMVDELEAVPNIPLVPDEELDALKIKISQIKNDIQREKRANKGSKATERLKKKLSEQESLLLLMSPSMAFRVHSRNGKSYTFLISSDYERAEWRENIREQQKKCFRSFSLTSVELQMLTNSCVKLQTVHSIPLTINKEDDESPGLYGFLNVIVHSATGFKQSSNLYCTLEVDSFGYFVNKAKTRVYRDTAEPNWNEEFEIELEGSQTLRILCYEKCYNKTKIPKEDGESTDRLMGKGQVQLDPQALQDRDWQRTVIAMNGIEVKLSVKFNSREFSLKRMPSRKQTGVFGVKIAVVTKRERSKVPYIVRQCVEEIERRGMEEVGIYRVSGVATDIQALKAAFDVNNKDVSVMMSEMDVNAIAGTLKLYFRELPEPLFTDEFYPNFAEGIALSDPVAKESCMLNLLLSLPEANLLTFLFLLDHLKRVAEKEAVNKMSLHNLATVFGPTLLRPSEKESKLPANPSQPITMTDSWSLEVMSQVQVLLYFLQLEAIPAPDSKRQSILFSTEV

[5] = biological target: Bone morphogenetic protein receptor type-1A (Homo sapiens, UniProt P36894)
Bone morphogenetic protein receptor type-1A, sequence (P36894 whole entry, canonical isoform): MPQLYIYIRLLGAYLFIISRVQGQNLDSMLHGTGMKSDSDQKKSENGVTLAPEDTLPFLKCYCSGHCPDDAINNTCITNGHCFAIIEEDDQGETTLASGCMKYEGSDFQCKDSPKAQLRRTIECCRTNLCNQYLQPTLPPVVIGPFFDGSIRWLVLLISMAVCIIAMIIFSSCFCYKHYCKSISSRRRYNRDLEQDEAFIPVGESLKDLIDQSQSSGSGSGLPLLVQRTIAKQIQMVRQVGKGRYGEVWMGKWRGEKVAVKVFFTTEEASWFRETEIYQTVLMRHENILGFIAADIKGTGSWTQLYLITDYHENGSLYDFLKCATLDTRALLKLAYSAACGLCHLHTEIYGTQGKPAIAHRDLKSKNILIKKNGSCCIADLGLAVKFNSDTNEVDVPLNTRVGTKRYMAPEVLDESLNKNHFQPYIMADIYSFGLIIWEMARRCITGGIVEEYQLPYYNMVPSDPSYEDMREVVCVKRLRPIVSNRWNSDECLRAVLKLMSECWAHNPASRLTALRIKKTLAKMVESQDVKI

[6] = biological target: Casein kinase I isoform epsilon (Homo sapiens, UniProt P49674)
Casein kinase I isoform epsilon, sequence (P49674 whole entry, canonical isoform): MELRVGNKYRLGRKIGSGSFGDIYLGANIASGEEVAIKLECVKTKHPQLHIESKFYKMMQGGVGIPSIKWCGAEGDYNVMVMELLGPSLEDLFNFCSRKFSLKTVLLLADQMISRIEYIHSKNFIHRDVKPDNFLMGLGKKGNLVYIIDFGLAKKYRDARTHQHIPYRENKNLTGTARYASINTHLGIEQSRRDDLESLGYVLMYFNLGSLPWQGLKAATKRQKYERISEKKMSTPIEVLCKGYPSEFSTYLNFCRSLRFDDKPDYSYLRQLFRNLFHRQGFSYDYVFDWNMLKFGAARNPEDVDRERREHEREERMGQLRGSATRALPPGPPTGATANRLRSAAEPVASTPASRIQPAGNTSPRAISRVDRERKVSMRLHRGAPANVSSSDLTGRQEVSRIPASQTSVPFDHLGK
Further: in the data inactive means no Kd found up to 30 µM.

Row | SMILES | Kd [1] | Kd [2] | Kd [3] | Kd [4] | Kd [5] | Kd [6]
1 | O=c1sn(-c2cccc3ccccc23)c(=O)n1Cc1ccccc1 [TIDEGLUSIB] | > 30 µM (inactive) | > 30 µM (inactive) | > 30 µM (inactive) | > 30 µM (inactive) | > 30 µM (inactive) | > 30 µM (inactive)
2 | Cn1cc(-c2ccc3nnc(C(F)(F)c4ccc5ncccc5c4)n3n2)cn1 [JNJ-38877605] | > 30 µM (inactive) | > 30 µM (inactive) | > 30 µM (inactive) | > 30 µM (inactive) | > 30 µM (inactive) | > 30 µM (inactive)
3 | Cn1ncc(Cl)c1-c1cc(C(=O)N[C@H](CN)Cc2cccc(F)c2)sc1Cl [AFURESERTIB] | > 30 µM (inactive) | > 30 µM (inactive) | – | – | > 30 µM (inactive) | > 30 µM (inactive)
4 | CNS(=O)(=O)Nc1nccc(Cc2c(C)c3ccc(Oc4ncccn4)cc3oc2=O)c1F [AVUTOMETINIB] | > 30 µM (inactive) | > 30 µM (inactive) | > 30 µM (inactive) | > 30 µM (inactive) | > 30 µM (inactive) | > 30 µM (inactive)
5 | CN(C)C(=O)c1cc2cnc(Nc3ccc(N4CCNCC4)cn3)nc2n1C1CCCC1 [RIBOCICLIB] | > 30 µM (inactive) | > 30 µM (inactive) | > 30 µM (inactive) | > 30 µM (inactive) | > 30 µM (inactive) | > 30 µM (inactive)
6 | CCc1cnn2c(NCc3ccc[n+]([O-])c3)cc(N3CCCC[C@H]3CCO)nc12 [DINACICLIB] | > 30 µM (inactive) | > 30 µM (inactive) | > 30 µM (inactive) | > 30 µM (inactive) | > 30 µM (inactive) | > 30 µM (inactive)
7 | COc1ccc(-c2ccc3c(N4CCOC[C@@H]4C)nc(N4CCOC[C@@H]4C)nc3n2)cc1CO [AZD-8055] | > 30 µM (inactive) | > 30 µM (inactive) | > 30 µM (inactive) | > 30 µM (inactive) | > 30 µM (inactive) | > 30 µM (inactive)
8 | COc1cc2nccc(Oc3ccc(NC(=O)Nc4cc(C)on4)c(Cl)c3)c2cc1OC [TIVOZANIB] | > 30 µM (inactive) | > 30 µM (inactive) | > 30 µM (inactive) | 0.16 µM (active) | > 30 µM (inactive) | –
9 | C[C@@H](Nc1cc(F)cc(F)c1)c1cc(C(=O)N(C)C)cc2c(=O)cc(N3CCOCC3)oc12 [AZD-8186] | > 30 µM (inactive) | > 30 µM (inactive) | > 30 µM (inactive) | > 30 µM (inactive) | > 30 µM (inactive) | > 30 µM (inactive)
10 | CNC(=O)CN1CCC(Oc2cc3c(Nc4cccc(Cl)c4F)ncnc3cc2OC)CC1 [SAPITINIB] | > 30 µM (inactive) | > 30 µM (inactive) | – | > 30 µM (inactive) | > 30 µM (inactive) | > 30 µM (inactive)
11 | CCCS(=O)(=O)Nc1ccc(F)c(C(=O)c2c[nH]c3ncc(-c4ccc(Cl)cc4)cc23)c1F [VEMURAFENIB] | > 30 µM (inactive) | > 30 µM (inactive) | – | > 30 µM (inactive) | > 30 µM (inactive) | > 30 µM (inactive)
12 | CNC(=O)c1ccc(C)c(-n2c(C)cc(OCc3ccc(F)cc3F)c(Br)c2=O)c1 [PH-797804] | > 30 µM (inactive) | > 30 µM (inactive) | – | > 30 µM (inactive) | > 30 µM (inactive) | > 30 µM (inactive)
13 | COC(=O)[C@@]1(O)C[C@H]2O[C@]1(C)n1c3ccccc3c3c4c(c5c6ccccc6n2c5c31)C(=O)NC4 [K-252A] | > 30 µM (inactive) | 4.03 µM (active) | – | > 30 µM (inactive) | > 30 µM (inactive) | > 30 µM (inactive)
14 | C[C@@H](c1ccc2nccn2c1)n1nnc2ncc(-c3cnn(C)c3)nc21 [SAVOLITINIB] | > 30 µM (inactive) | > 30 µM (inactive) | > 30 µM (inactive) | > 30 µM (inactive) | > 30 µM (inactive) | > 30 µM (inactive)
15 | CN1CCC(COc2cnc(-c3cccc(Cn4nc(-c5cccc(C#N)c5)ccc4=O)c3)nc2)CC1 [TEPOTINIB] | > 30 µM (inactive) | > 30 µM (inactive) | > 30 µM (inactive) | > 30 µM (inactive) | > 30 µM (inactive) | > 30 µM (inactive)
16 | COc1cc(N2CCC(N3CCN(C)CC3)CC2)ccc1Nc1ncnc(Nc2ccccc2S(=O)(=O)C(C)C)n1 [ASP-3026] | > 30 µM (inactive) | > 30 µM (inactive) | > 30 µM (inactive) | > 30 µM (inactive) | > 30 µM (inactive) | > 30 µM (inactive)
17 | Cc1cn(-c2cc(NC(=O)c3ccc(C)c(Nc4nccc(-c5cccnc5)n4)c3)cc(C(F)(F)F)c2)cn1 [NILOTINIB] | > 30 µM (inactive) | – | > 30 µM (inactive) | – | – | –
18 | OCCn1cc(-c2cnc3nnn(Cc4ccc5ncccc5c4)c3n2)cn1 [PF-04217903] | > 30 µM (inactive) | > 30 µM (inactive) | – | > 30 µM (inactive) | > 30 µM (inactive) | > 30 µM (inactive)
19 | O=C(Nc1cccc(Cl)c1)Nc1ncc(CCNc2ncnc3ccsc23)s1 [SNS-314] | > 30 µM (inactive) | > 30 µM (inactive) | – | > 30 µM (inactive) | > 30 µM (inactive) | > 30 µM (inactive)
20 | Cc1nc(N)sc1-c1ccnc(Nc2ccc(N3CCOCC3)cc2)n1 [CYC-116] | > 30 µM (inactive) | – | > 30 µM (inactive) | 8.09 µM (active) | > 30 µM (inactive) | 0.841 µM (active)
21 | COc1cc2nccc(Oc3ccc(NC(=O)NC4CC4)c(Cl)c3)c2cc1C(N)=O [LENVATINIB] | > 30 µM (inactive) | > 30 µM (inactive) | > 30 µM (inactive) | 4.11 µM (active) | – | –
22 | CCn1c(-c2nonc2N)nc2c(C#CC(C)(C)O)ncc(OC[C@H]3CCCNC3)c21 [GSK-690693] | > 30 µM (inactive) | – | > 30 µM (inactive) | > 30 µM (inactive) | – | –
23 | CN1CCN(c2ccc3nc(-c4c(N)c5c(F)cccc5[nH]c4=O)[nH]c3c2)CC1 [DOVITINIB] | > 30 µM (inactive) | – | – | 17.4 µM (active) | – | –
24 | Nc1nc(N)c2nc(-c3cccc(O)c3)c(-c3cccc(O)c3)nc2n1 [TG100-115] | > 30 µM (inactive) | – | > 30 µM (inactive) | > 30 µM (inactive) | – | –

— ChEMBL document CHEMBL3991601, “The target landscape of clinical kinase drugs” (Science, 2017)
